Values quoted from earlier work as cited in patent US20080147019A1, “Antimicrobial component system containing metallic nanoparticles and chitosan and/or its derivatives” (Kimberly-Clark Worldwide, Inc., priority 2006, published 2008).

System: bacteria (gram+ and gram−), as well as fungi (molds and yeasts)
Settings: very low doses, as low as about

SMILES: [Ag+] [Ionic silver, Ionic silver (Ag+)]
- dose at which antimicrobial (oligodynamic): 0.001-0.05 ppm
